# Measured values published in patent US20110070232A1, “Combination Therapy with an Antitumor Alkaloid” (Pharma Mar, S.A., priority 2008, published 2011).
# pIC50: −log10 of the molar value. Read-outs that look alike come from different tables or passages of the source.
# Columns and labels:
# [1] = system: HCT-116 (colon cancer) cell line; assay: IC50 determination, MIT (tetrazolium) assay, 72 h (Example 18); format: cell-based, human; conditions: Homo sapiens; HCT-116, 72 hours of drug exposure
# Description: HCT-116 cells were grown in McCoy's supplemented with 10% Fetal Bovine Serum (FBS), 1% penicillin/streptomycin and 2 mM L-glutamine.
# Before plating, cell cultures were trypsinized and cell number estimated using an automated flow cytometer.
# Cells were harvested and seeded in 96 well microtiter plates at the appropriate cell density (5,000-10,000 cells) in 150 μL of media and incubated for 24 hours to allow the cells to attach before drug addition.
# After the incubation period (72 hours), 50 μL of MIT solution was added to each microtiter well and incubated for further 8 hours at 37° C. The culture medium was then removed and 50 μl, of DMSO were added to dissolve the MIT crystals. Optical densities were read at 540 nm on spectrophotometer microplate reader.
# IC50 values were calculated from an average of two to four assays for each of the test agents.
# MRI-H-254 tumors = format: in vivo, mice; conditions: for % T/C on day 20 / % T/C on day 23 / % T/C on day 26 / % T/C on day 30 / % T/C on day 34 / % T/C on day 36 / % T/C on day 43 / % T/C on day 49 / % T/C on day 56 / % T/C on day 63: PM00104 0.90 IV, DPI 20, 27, 34
# Description: Female athymic nude mice (Harlan Sprague Dawley, Madison, Wis.) were utilized for all experiments. Animals were housed in ventilated rack caging with food and water ad libitum. The mice were acclimated for at least 5 days prior to tumor implantation with tumor fragments.
# Bacterial culture was taken on cells used to implant the study.
# Treatments were initiated on DPI 20.
# 5-FU was provided in the form of injection vials which was diluted with 0.9% sterile Saline.
# Tumor size measurements were recorded twice weekly from the treatment initiation until the termination of the study.
# Mean, standard deviation and standard error of the mean were determined for tumor volume for all animal groups at all assessments. Student's t test was performed on tumor volumes at each measurement day, including at the end of the study, to determine whether there were any statistically significant differences between combination treatment groups and single monotherapy treatment groups.
# [2] = 5-FU 100 IP mg/kg/day (G2, G3, G5)
structure (smiles),measurement,setting,value
"O=c1[nH]cc(F)c(=O)[nH]1 [5-FU, 5-fluorouracil]",pIC50,[1],5.22
same,% T/C on day 20,"MRI-H-254 tumors; 5-FU 50 IP mg/kg/day (G4, G6)",96.0%
same,% T/C on day 23,"MRI-H-254 tumors; 5-FU 50 IP mg/kg/day (G4, G6)",52.3%
same,% T/C on day 26,"MRI-H-254 tumors; 5-FU 50 IP mg/kg/day (G4, G6)",47.9%
same,% T/C on day 30,"MRI-H-254 tumors; 5-FU 50 IP mg/kg/day (G4, G6)",55.3%
same,% T/C on day 34,"MRI-H-254 tumors; 5-FU 50 IP mg/kg/day (G4, G6)",45.0%
same,% T/C on day 36,"MRI-H-254 tumors; 5-FU 50 IP mg/kg/day (G4, G6)",45.7%
same,% T/C on day 43,"MRI-H-254 tumors; 5-FU 50 IP mg/kg/day (G4, G6)",58.1%
same,% T/C on day 49,"MRI-H-254 tumors; 5-FU 50 IP mg/kg/day (G4, G6)",100.0%
same,% T/C on day 56,"MRI-H-254 tumors; 5-FU 50 IP mg/kg/day (G4, G6)",117.6%
same,% T/C on day 63,"MRI-H-254 tumors; 5-FU 50 IP mg/kg/day (G4, G6)",123.9%
same,% T/C on day 20,MRI-H-254 tumors; [2],101.8%
same,% T/C on day 23,MRI-H-254 tumors; [2],55.2%
same,% T/C on day 26,MRI-H-254 tumors; [2],47.1%
same,% T/C on day 30,MRI-H-254 tumors; [2],36.3%
same,% T/C on day 34,MRI-H-254 tumors; [2],31.6%
same,% T/C on day 36,MRI-H-254 tumors; [2],23.0%
same,% T/C on day 43,MRI-H-254 tumors; [2],30.9%
same,% T/C on day 49,MRI-H-254 tumors; [2],54.6%
same,% T/C on day 56,MRI-H-254 tumors; [2],96.3%
same,% T/C on day 63,MRI-H-254 tumors; [2],107.8%
same,% Inhibition,"MRI-H-254 tumors; day 20, PM00104 0.9 and 5-FU 50 mg/kg/day",4.0%
same,% Inhibition,"MRI-H-254 tumors; day 20, PM00104 0.9 and 5-FU 100 mg/kg/day",−1.8%
same,% Inhibition,"MRI-H-254 tumors; day 23, PM00104 0.9 and 5-FU 50 mg/kg/day",47.7%
same,% Inhibition,"MRI-H-254 tumors; day 23, PM00104 0.9 and 5-FU 100 mg/kg/day",44.8%
same,% Inhibition,"MRI-H-254 tumors; day 26, PM00104 0.9 and 5-FU 50 mg/kg/day",52.1%
same,% Inhibition,"MRI-H-254 tumors; day 26, PM00104 0.9 and 5-FU 100 mg/kg/day",52.9%
same,% Inhibition,"MRI-H-254 tumors; day 30, PM00104 0.9 and 5-FU 50 mg/kg/day",44.7%
same,% Inhibition,"MRI-H-254 tumors; day 30, PM00104 0.9 and 5-FU 100 mg/kg/day",63.7%
same,% Inhibition,"MRI-H-254 tumors; day 34, PM00104 0.9 and 5-FU 50 mg/kg/day",55.0%
same,% Inhibition,"MRI-H-254 tumors; day 34, PM00104 0.9 and 5-FU 100 mg/kg/day",68.4%
same,% Inhibition,"MRI-H-254 tumors; day 36, PM00104 0.9 and 5-FU 50 mg/kg/day",54.3%
same,% Inhibition,"MRI-H-254 tumors; day 36, PM00104 0.9 and 5-FU 100 mg/kg/day",77.0%
same,% Inhibition,"MRI-H-254 tumors; day 43, PM00104 0.9 and 5-FU 50 mg/kg/day",41.9%
same,% Inhibition,"MRI-H-254 tumors; day 43, PM00104 0.9 and 5-FU 100 mg/kg/day",69.1%
same,% Inhibition,"MRI-H-254 tumors; day 49, PM00104 0.9 and 5-FU 50 mg/kg/day",0.0%
same,% Inhibition,"MRI-H-254 tumors; day 49, PM00104 0.9 and 5-FU 100 mg/kg/day",45.4%
same,% Inhibition,"MRI-H-254 tumors; day 56, PM00104 0.9 and 5-FU 50 mg/kg/day",−17.6%
same,% Inhibition,"MRI-H-254 tumors; day 56, PM00104 0.9 and 5-FU 100 mg/kg/day",3.7%
same,% Inhibition,"MRI-H-254 tumors; day 63, PM00104 0.9 and 5-FU 50 mg/kg/day",−23.9%
same,% Inhibition,"MRI-H-254 tumors; day 63, PM00104 0.9 and 5-FU 100 mg/kg/day",−7.8%
